For 21 compounds, EC-1 (MIC) and PA-7 (MIC) results are on record in patent publication US8846933B2, “N-link hydroxamic acid derivatives useful as antibacterial agents” (Pfizer Inc., priority 2009, dated 2014).

Molecules are shown by their SMILES.

Assay [1] concerns Escherichia coli EC-1: VOGEL, mouse virulent. In words: MIC determination (CLSI), strain EC-1. Type of assay: cell-based. As to conditions: strain EC-1; unit assumed. The method in brief: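 The mouse-virulent VOGEL isolate of E. coli, EC-1, served as test organism. Minimum inhibitory concentration was measured by CLSI dilution methodology (M7-A7; M100-S18 standards).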
Assay [2] has as its system Pseudomonas aeruginosa UI-18: Wild-type (PA-7). Description: MIC determination (CLSI), strain PA-7. Format: cell-based. As to conditions: strain PA-7; unit assumed. The method in brief:
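Strain tested was P. aeruginosa UI-18, a wild-type isolate labelled PA-7. Minimum inhibitory concentrations followed CLSI dilution methodology for aerobically growing bacteria (M7-A7, M100-S18).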

`CC(CCn1ccc(-c2ccc3ccncc3c2)cc1=O)(C(=O)NO)S(C)(=O)=O` (stereo not drawn) [Example 261, N-hydroxy-4-(4-isoquinolin-7-yl-2-oxopyridin-1(2H)-yl)-2-methyl-2-(methylsulfonyl)butanamide] registered an EC-1 (MIC) in assay [1] of 8 mg/L. In assay [2], this compound registered a PA-7 (MIC) of 4 mg/L.

For `CC(C)(O)Cc1cccc(-c2ccn(CCC(C)(C(=O)NO)S(C)(=O)=O)c(=O)c2)c1` (stereo not drawn) [Example 262, N-hydroxy-4-{4-[3-(2-hydroxy-2-methylpropyl)phenyl]-2-oxopyridin-1(2H)-yl}-2-methyl-2-(methylsulfonyl)butanamide], the EC-1 (MIC) in assay [1] was 64 mg/L. In addition, in assay [2], the PA-7 (MIC) is over 64 mg/L.

`CC(CCn1ccc(-c2ccc3[nH]cc(CCO)c3c2)cc1=O)(C(=O)NO)S(C)(=O)=O` (stereo not drawn) [Example 263, N-hydroxy-4-{4-[3-(2-hydroxyethyl)-1H-indol-5-yl]-2-oxopyridin-1(2H)-yl}-2-methyl-2-(methylsulfonyl)butanamide] registered an EC-1 (MIC) in assay [1] of 8 mg/L. Moreover, the PA-7 (MIC) in assay [2] was over 64 mg/L.

In assay [1], `Cc1cccc(-c2ccn(CCC(C)(C(=O)NO)S(C)(=O)=O)c(=O)c2)c1F` (stereo not drawn) [Example 264, 4-[4-(2-fluoro-3-methylphenyl)-2-oxopyridin-1(2H)-yl]-N-hydroxy-2-methyl-2-(methylsulfonyl)butanamide] returned an EC-1 (MIC) of 0.5 mg/L. Further, the PA-7 (MIC) in assay [2] came out at 0.5 mg/L.

Take `CC(CCn1ccc(-c2ccc3c(ccn3CCO)c2)cc1=O)(C(=O)NO)S(C)(=O)=O` (stereo not drawn) [Example 265, N-hydroxy-4-{4-[1-(2-hydroxyethyl)-1H-indol-5-yl]-2-oxopyridin-1(2H)-yl}-2-methyl-2-(methylsulfonyl)butanamide]: the EC-1 (MIC) in assay [1] stood at 4 mg/L. In assay [2], this compound returned a PA-7 (MIC) of 16 mg/L.

`Cc1c(Cl)cccc1-c1ccn(CCC(C)(C(=O)NO)S(C)(=O)=O)c(=O)c1` (stereo not drawn) [Example 266, 4-[4-(3-chloro-2-methylphenyl)-2-oxopyridin-1(2H)-yl]-N-hydroxy-2-methyl-2-(methylsulfonyl)butanamide] displayed an EC-1 (MIC) in assay [1] of 4 mg/L. The PA-7 (MIC) in assay [2] was determined as 4 mg/L.

`CC(CCn1ccc(-c2ccc3c(ccn3CCCO)c2)cc1=O)(C(=O)NO)S(C)(=O)=O` (stereo not drawn) [Example 267, N-hydroxy-4-{4-[1-(3-hydroxypropyl)-1H-indol-5-yl]-2-oxopyridin-1(2H)-yl}-2-methyl-2-(methylsulfonyl)butanamide] returned an EC-1 (MIC) in assay [1] of 2 mg/L. The PA-7 (MIC) in assay [2] is 8 mg/L.

In assay [1], `CC(CCn1ccc(-c2ccc(OCc3ccncc3)cc2)cc1=O)(C(=O)NO)S(C)(=O)=O` (stereo not drawn) [Example 268, N-hydroxy-2-methyl-2-(methylsulfonyl)-4-{2-oxo-4-[4-(pyridin-4-ylmethoxy)phenyl]pyridin-1(2H)-yl}butanamide] yielded an EC-1 (MIC) of 1 mg/L. This compound also came in with a PA-7 (MIC) in assay [2] of 2 mg/L.

Turning to `CC(CCn1ccc(-c2ccc(OCc3cccnc3)cc2)cc1=O)(C(=O)NO)S(C)(=O)=O` (stereo not drawn) [Example 269, N-hydroxy-2-methyl-2-(methylsulfonyl)-4-{2-oxo-4-[4-(pyridin-3-ylmethoxy)phenyl]pyridin-1(2H)-yl}butanamide], in assay [1], the EC-1 (MIC) was 0.5 mg/L. The compound also displayed a PA-7 (MIC) in assay [2] of 2 mg/L.

On to `CC(CCn1ccc(-c2ccc(OCc3ccccn3)cc2)cc1=O)(C(=O)NO)S(C)(=O)=O` (stereo not drawn) [Example 270, N-hydroxy-2-methyl-2-(methylsulfonyl)-4-{2-oxo-4-[4-(pyridin-2-ylmethoxy)phenyl]pyridin-1(2H)-yl}butanamide], for which the EC-1 (MIC) in assay [1] worked out at 1 mg/L. For the same compound, in assay [2], the PA-7 (MIC) worked out at 2 mg/L.

In turn, `CC(CCn1ccc(-c2ccc(OCCc3cccnc3)cc2)cc1=O)(C(=O)NO)S(C)(=O)=O` (stereo not drawn) [Example 271, N-hydroxy-2-methyl-2-(methylsulfonyl)-4-{2-oxo-4-[4-(2-pyridin-3-ylethoxy)phenyl]pyridin-1(2H)-yl}butanamide] came in with an EC-1 (MIC) in assay [1] of 0.25 mg/L. Also, in assay [2], the PA-7 (MIC) was determined as 2 mg/L.

Regarding `CC(CCn1ccc(-c2ccc(OCCc3ccccn3)cc2)cc1=O)(C(=O)NO)S(C)(=O)=O` (stereo not drawn) [Example 272, N-hydroxy-2-methyl-2-(methylsulfonyl)-4-{2-oxo-4-[4-(2-pyridin-2-ylethoxy)phenyl]pyridin-1(2H)-yl}butanamide], the EC-1 (MIC) in assay [1] worked out at 0.5 mg/L. Also, the PA-7 (MIC) in assay [2] amounted to 2 mg/L.

For the compound `CC(CCn1ccc(-c2ccc3cc(OCCO)ccc3c2)cc1=O)(C(=O)NO)S(C)(=O)=O` (stereo not drawn) [Example 273, N-hydroxy-4-{4-[6-(2-hydroxyethoxy)-2-naphthyl]-2-oxopyridin-1(2H)-yl}-2-methyl-2-(methylsulfonyl)butanamide], the EC-1 (MIC) in assay [1] was 0.5 mg/L. Also, in assay [2], the PA-7 (MIC) was 4 mg/L.

The compound `CC(CCn1ccc(-c2ccc3cc(OCCCO)ccc3c2)cc1=O)(C(=O)NO)S(C)(=O)=O` (stereo not drawn) [Example 274, N-hydroxy-4-{4-[6-(3-hydroxypropoxy)-2-naphthyl]-2-oxopyridin-1(2H)-yl}-2-methyl-2-(methylsulfonyl)butanamide] displayed an EC-1 (MIC) in assay [1] of 0.25 mg/L. In addition, the PA-7 (MIC) in assay [2] was 2 mg/L.

As for `CC(CCn1ccc(-c2ccc(OCCCCS(N)(=O)=O)cc2Cl)cc1=O)(C(=O)NO)S(C)(=O)=O` (stereo not drawn) [Example 276, 4-[4-{4-[4-(aminosulfonyl)butoxy]-2-chlorophenyl}-2-oxopyridin-1(2H)-yl]-N-hydroxy-2-methyl-2-(methylsulfonyl)butanamide], the EC-1 (MIC) in assay [1] was determined as 16 mg/L. Further, the PA-7 (MIC) in assay [2] turned out to be 32 mg/L.

`CC(CCn1ccc(-c2ccc(OCCCCCN3CCOCC3)cc2)cc1=O)(C(=O)NO)S(C)(=O)=O` (stereo not drawn) [Example 277, N-hydroxy-2-methyl-2-(methylsulfonyl)-4-[4-{4-[(5-morpholin-4-ylpentyl)oxy]phenyl}-2-oxopyridin-1(2H)-yl]butanamide] showed an EC-1 (MIC) in assay [1] of 1 mg/L. The compound further showed a PA-7 (MIC) in assay [2] of 4 mg/L.

As for `CC(CCn1ccc(-c2ccc(-c3ccc(S(N)(=O)=O)cc3)cc2)cc1=O)(C(=O)NO)S(C)(=O)=O` (stereo not drawn) [Example 278, 4-{4-[4′-(aminosulfonyl)biphenyl-4-yl]-2-oxopyridin-1(2H)-yl}-N-hydroxy-2-methyl-2-(methylsulfonyl)butanamide], the EC-1 (MIC) in assay [1] was 2 mg/L. For the same compound, the PA-7 (MIC) in assay [2] turned out to be 16 mg/L.

In turn, `C[C@@](CCn1ccc(-c2ccc(OCCCCO)cc2)cc1=O)(C(=O)NO)S(C)(=O)=O` [Example 279, (2R)-N-hydroxy-4-{4-[4-(4-hydroxybutoxy)phenyl]-2-oxopyridin-1(2H)-yl}-2-methyl-2-(methylsulfonyl)butanamide] displayed an EC-1 (MIC) in assay [1] of 0.5 mg/L. In assay [2], this compound came in with a PA-7 (MIC) of 1 mg/L.

The compound `C[C@@](CCn1ccc(-c2ccc(OCCCCCO)cc2)cc1=O)(C(=O)NO)S(C)(=O)=O` [Example 280, (2R)-N-hydroxy-4-[4-{4-[(5-hydroxypentyl)oxy]phenyl}-2-oxopyridin-1(2H)-yl]-2-methyl-2-(methylsulfonyl)butanamide] gave an EC-1 (MIC) in assay [1] of 0.25 mg/L. Moreover, the PA-7 (MIC) in assay [2] came to 0.5 mg/L.

For the compound `CC(CCn1ccc(-c2ccc(-c3ccc(F)cc3)nc2)cc1=O)(C(=O)NO)S(C)(=O)=O` (stereo not drawn) [Example 281, 4-[6-(4-fluorophenyl)-2′-oxo-3,4′-bipyridin-1′(2′H)-yl]-N-hydroxy-2-methyl-2-(methylsulfonyl)butanamide], the EC-1 (MIC) in assay [1] amounted to 0.5 mg/L. Moreover, in assay [2], the PA-7 (MIC) is 8 mg/L.

`CC(CCn1ccc(-c2ccc(Br)c(F)c2)cc1=O)(C(=O)NO)S(C)(=O)=O` (stereo not drawn) [Example 282, 4-[4-(4-bromo-3-fluorophenyl)-2-oxopyridin-1(2H)-yl]-N-hydroxy-2-methyl-2-(methylsulfonyl)butanamide]: the EC-1 (MIC) in assay [1] was determined as 0.5 mg/L. Besides, the PA-7 (MIC) in assay [2] was determined as 1 mg/L.
